Data as given in patent US20050245466A1, “Use of topoisomerase inhibitors and heat shock protein 90 inhibitors for use in chemotherapy” (THE UNIVERSITY OF LIVERPOOL, priority 2002, published 2005).

Legend:
E.coli MC4100 = assay: Agar sensitivity plates, parental strain; type: cell-based; conditions: for zone of inhibition: parental strain MC4100
Protocol: (§1) 200 μl of an overnight culture of E.coli strains was spread over the surface of a LB plate. The plates were incubated for three hours at 37° C., and the discs (50 μl of drug) placed onto the plates that were then incubated at 37° C. overnight.
(§2) The plates were photographed the following day with Fluor-S™ Quantity 1 program and the results are illustrated in FIG. 18.
(§3) The inhibition of bacterial cell growth was assessed by examining the zones of inhibition around each disc containing the topo II inhibitor.

E.coli JGT11 (htpG null) = assay: Agar sensitivity plates, htpG null mutant; type: cell-based
Protocol: as §1, §2, §3

[1] = MTD stated with the xenograft dosing; conditions: CD1 Nude, mouse, in vivo; mice
Protocol: Treatment with test agents was initiated when the mean individual tumour volume exceeded 1,000 mm^3. The mice were dosed at day 11 and day 22—([…] 10 mg/kg, VePesid 5 mg/kg, MTD […] 22 mg/kg (a non toxic form of 17AAG which can be tolerated at much higher doses) MTD VePesid 70 mg/kg.

HtpG = HtpG (Escherichia coli, UniProt P0A6Z3); conditions: in vitro; cited from earlier work
HtpG, sequence (P0A6Z3 whole entry): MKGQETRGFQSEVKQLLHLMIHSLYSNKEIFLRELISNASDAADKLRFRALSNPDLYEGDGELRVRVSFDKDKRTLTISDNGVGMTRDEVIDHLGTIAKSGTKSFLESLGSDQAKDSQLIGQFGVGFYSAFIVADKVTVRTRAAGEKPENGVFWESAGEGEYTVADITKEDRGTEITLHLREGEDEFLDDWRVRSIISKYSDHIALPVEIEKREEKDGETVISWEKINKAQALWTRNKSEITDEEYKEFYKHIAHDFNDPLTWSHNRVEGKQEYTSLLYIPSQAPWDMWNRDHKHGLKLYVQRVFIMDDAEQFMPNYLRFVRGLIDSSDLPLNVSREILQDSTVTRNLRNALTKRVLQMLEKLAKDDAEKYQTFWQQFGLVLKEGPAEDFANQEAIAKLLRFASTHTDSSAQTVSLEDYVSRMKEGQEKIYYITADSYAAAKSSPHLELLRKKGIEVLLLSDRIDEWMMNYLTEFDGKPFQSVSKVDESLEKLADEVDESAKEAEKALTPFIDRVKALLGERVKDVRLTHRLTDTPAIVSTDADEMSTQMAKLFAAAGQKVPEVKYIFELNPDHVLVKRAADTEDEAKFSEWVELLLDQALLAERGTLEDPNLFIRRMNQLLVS

SMILES | inhibition of growth (zones of inhibition) (E.coli MC4100; MC4100, discs in the range of 0.6-0.01 μM) | zone of inhibition (E.coli MC4100; 0.025 μM) | zone of inhibition (E.coli MC4100; 0.1 μM) | effect on growth versus parental strain (FIG. 18) (E.coli JGT11 (htpG null); JGT11, even at concentrations as low as 0.01 μM) | inhibition of growth (zones of inhibition) versus MC4100 (E.coli JGT11 (htpG null); htpG null mutant, discs in the range of 0.6-0.01 μM) | MTD [1] [mg/kg] | activity of HtpG (HtpG)
O=C(O)c1cn(C2CC2)c2cc(N3CCNCC3)c(F)cc2c1=O [Ciprofloxacin] | some inhibition of growth | no zone of inhibition | reduced zone of inhibition | significantly greater effect | increased inhibition |  | 
COC1=C2C[C@@H](C)C[C@H](OC)[C@H](O)[C@@H](C)/C=C(\C)[C@H](OC(N)=O)[C@@H](OC)/C=C\C=C(/C)C(=O)NC(=CC1=O)C2=O [Geldanamycin] |  |  |  |  |  | 22 | inhibits
COc1cc([C@@H]2c3cc4c(cc3[C@@H](O[C@@H]3O[C@@H]5CO[C@@H](C)O[C@H]5[C@H](O)[C@H]3O)[C@H]3COC(=O)[C@H]23)OCO4)cc(OC)c1O [VePesid, Etoposide] |  |  |  |  |  | 70 | 
